Reference: PMC10650955, “α-Aminophosphonate inhibitors of metallo-β-lactamases NDM-1 and VIM-2” (RSC Medicinal Chemistry, 2023)
Structures can show the parent of a compound that is named as a salt.

Tests used:
15N-labelled VIM-2 = target: T1, 15N-labelled VIM-2 (Escherichia coli, UniProt Q5U7L7); experiment: 1H,15N HSQC NMR chemical shift perturbation titration, VIM-2; format: binding; settings: VIM-2 Kd, 0-16 equiv. ligand, pH 7.0, 310 K
T1 construct: made in house
Experimental: (§1) Solution NMR spectroscopy is a powerful tool to assess protein–ligand interactions under close to physiological conditions.[47] We, therefore, performed NMR chemical shift perturbation (CSP, for details, see section S8, ESI ^†) experiments to identify the amino acid residues of NDM-1 and VIM-2 that are involved in inhibitor binding, making use of the previously published protein assignments.[48,49] Titrations were conducted using ^15N-labelled proteins with 0, 0.5, 1, 2, 4, 8, and 16 equiv. of 5 inhibitors for NDM-1 and of 7 inhibitors for VIM-2.
(§2) For the titrations, ^15N-labelled NDM-1 and ^15N-labelled VIM-2 (250 μM), and titrated ligands (0.5 equiv. in 1 μL) were prepared in the same buffer as the protein (20 mM KPO4, 0.1 mM ZnCl2, pH 7.0 with 10% D2O and 2.5% DMSO-d6). ^1H,^15N HSQC spectra were acquired with 128 × 1024 complex points (F1 × F2) and spectral width of 9090 × 2740 Hz on ^15N-labeled NDM-1/VIM-2 and with every titration step up to 1 : 16 ratio between protein : ligand (0, 0.5, 1, 2, 4, 8, and 16 equiv. of ligand). All experiments were recorded on a Bruker 600 MHz spectrometer at 310 K equipped with a 5 mm TCI cryogenic probe. The NMR data were processed on the MestReNova software with the Mnova Binding plugin. The weighted average chemical shift perturbations (CSP) for the backbone amides were calculated from the observed chemical shift differences in the proton and nitrogen dimensions using the equation (chemical shift scaling factors: FH = 1, FN = 0.156) CSP = Δδ1H,15N = [drawing 13] .
(§3) 7. Chemical shift perturbation histograms
(§4) Chemical shift perturbation was calculated according equation (1) 2
(§5) CSP = Δδ(1H,15N) = √(Δδ1H2 + (1⁄R × Δδ15N2) Rscale = 6.5 (1)
(§6) Where Δδ1H is the chemical shift change for proton dimension, Δδ15N is the chemical shift change for nitrogen dimension, Rscale is a
(§7) The chemical shift perturbations (CSP) were classified as significant (SSP) when the observed Δδ(1H,15N) was greater than the population
(§8) mean plus the standard deviation (µ+1σ) – solid line; (µ+2σ) – dashed line, and (µ+3σ) – dashed line.
(§9) Further on, Kd was calculated according: 3
(§10) ([P]+[L]+Kd)− √([P]+[L]+Kd)2−4[P][L]
(§11) ΔδmaxΔδobs = Δδmax 2[P] (2)
(§12) Where Kd is the dissociation constant, [P] and [L] are protein and ligand concentrations, respectively. Δδmax were estimated in
(§13) MestReNova by extrapolation of the obser ved chemical shift differences Δδobs.

VIM-2 = target: T2, VIM-2 (Escherichia coli, UniProt Q5U7L7); experiment: Dose rate inhibition studies for IC50 determination, VIM-2 enzymatic assay; format: biochemical; settings: inhibitor 0-800 μM, 3 parallel measurements, N.I. = no enzyme inhibitory activity observed
T2 construct: made in house
Experimental: (§14) The […] synthesized compounds 5a–l were tested for their inhibitory activities against NDM-1, VIM-2 (Table 1), and GIM-1 in an in vitro enzymatic assay (ESI ^†).[41] The inhibitory activity was measured using enzyme concentrations of 0.1 nM VIM-2, 10 nM NDM-1 or 1 nM GIM-1, with an excess Zn(II) (100 μM, see Experimental methods), with inhibitor compounds with concentrations from 0 to 800 μM. Each data point was measured in triplicates. […] This is in line with previous reports.[42,43]
(§15) A 100 μl solution with buffer (50 mM HEPES (pH 7.2), 100 μM ZnCl2, 2.5% DMSO), purified enzyme (0.1 nM VIM-2, 10 nM NDM-1 or 1 nM GIM-1) and 800–0 μM inhibitor was incubated in a 96 well plate at 25 °C for 5 min. In addition, the enzyme buffer contained 400 μg ml^−1 bovine serum albumin (BSA) to prevent protein unfolding and loss of activity due to low concentrations.[67,68] 100 μM of the reporter substrate nitrocefin (VIM-2, GIM-1) or imipenem (NDM-1) was added to the enzyme–inhibitor solution and the increase in absorbance at 482 nm (nitrocefin) or 300 nm (imipenem) was recorded on a Spectramax M4 spectrophotometer (Molecular Devices). Each data point was performed in triplicates and the initial velocity for each inhibitor concentration was analyzed by a log [inhibitor] vs. response curve fitting to calculate IC50 in GraphPad Prism 9.2 software.

NDM-1 = target: T3, NDM-1 (Klebsiella pneumoniae, UniProt C7C422); experiment: Dose rate inhibition studies for IC50 determination, NDM-1 enzymatic assay; format: biochemical; settings: Enzyme IC50 NDM-1, 10 nM NDM-1, 100 μM ZnCl2, imipenem substrate, inhibitor 0-800 μM, 3 parallel measurements; N.I. = no enzyme inhibitory activity observed
T3 construct: made in house
T3 sequence (C7C422 29-270 limits assumed): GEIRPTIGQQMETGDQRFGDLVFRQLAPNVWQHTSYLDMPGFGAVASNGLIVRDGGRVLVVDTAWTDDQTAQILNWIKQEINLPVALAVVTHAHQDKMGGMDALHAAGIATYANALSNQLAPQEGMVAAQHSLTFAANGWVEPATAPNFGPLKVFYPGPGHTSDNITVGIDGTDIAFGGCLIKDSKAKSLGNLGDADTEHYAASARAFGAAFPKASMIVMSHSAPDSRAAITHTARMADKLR
Experimental: as §14, §15

15N-labelled NDM-1 = target: T4, 15N-labelled NDM-1 (Klebsiella pneumoniae, UniProt C7C422); experiment: 1H,15N HSQC NMR chemical shift perturbation titration, NDM-1; format: binding
T4 construct: made in house
T4 sequence (C7C422 29-270 limits assumed): as above
Experimental: as §1, §2, §3, §4, §5, §6, §7, §8, §9, §10, §11, §12, §13

[1] = Estimated binding constant (Kd), residue 119T, Table S5, per-residue fit, NDM-1 119T
[2] = Estimated binding constant (Kd), residue 124D, Table S5, per-residue fit, NDM-1 124D
[3] = Estimated binding constant (Kd), residue 127G, Table S5, per-residue fit, NDM-1 127G
[4] = Estimated binding constant (Kd), residue 159H, Table S5, per-residue fit, NDM-1 159H
[5] = Estimated binding constant (Kd), residue 160S, Table S5, per-residue fit, NDM-1 160S
[6] = Estimated binding constant (Kd), residue 188G, Table S5, per-residue fit, NDM-1 188G
[7] = Estimated binding constant (Kd), residue 191S, Table S5, per-residue fit, NDM-1 191S
[8] = Estimated binding constant (Kd), residue 194I, Table S5, per-residue fit, NDM-1 194I
[9] = Estimated binding constant (Kd), residue 197G, Table S5, per-residue fit, NDM-1 197G
[10] = Estimated binding constant (Kd), residue 205F, Table S5, per-residue fit, NDM-1 205F
[11] = Estimated binding constant (Kd), residue 211K, Table S5, per-residue fit, NDM-1 211K
[12] = Estimated binding constant (Kd), residue 214K, Table S5, per-residue fit, NDM-1 214K
[13] = Estimated binding constant (Kd), residue 217S, Table S5, per-residue fit, NDM-1 217S
[14] = Estimated binding constant (Kd), residue 228H, Table S5, per-residue fit, NDM-1 228H
[15] = Estimated binding constant (Kd), residue 229Y, Table S5, per-residue fit, NDM-1 229Y
[16] = Estimated binding constant (Kd), residue 230A, Table S5, per-residue fit, NDM-1 230A
[17] = Estimated binding constant (Kd), residue 248M, Table S5, per-residue fit, NDM-1 248M
[18] = Estimated binding constant (Kd), residue 251S, Table S5, per-residue fit, NDM-1 251S
[19] = Estimated binding constant (Kd), residue 252A, Table S5, per-residue fit, NDM-1 252A
[20] = Estimated binding constant (Kd), residue 254D, Table S5, per-residue fit, NDM-1 254D
[21] = Estimated binding constant (Kd), residue 255S, Table S5, per-residue fit, NDM-1 255S
[22] = NDM-1 Kd, NMR chemical shift perturbation, 0-16 equiv. ligand, pH 7.0, 310 K

| Compound | Kd (15N-labelled VIM-2) | IC50 (NDM-1) | Kd (15N-labelled NDM-1; [1]) | Kd (15N-labelled NDM-1; [2]) | Kd (15N-labelled NDM-1; [3]) | Kd (15N-labelled NDM-1; [4]) | Kd (15N-labelled NDM-1; [5]) | Kd (15N-labelled NDM-1; [6]) | Kd (15N-labelled NDM-1; [7]) | Kd (15N-labelled NDM-1; [8]) | Kd (15N-labelled NDM-1; [9]) | Kd (15N-labelled NDM-1; [10]) | Kd (15N-labelled NDM-1; [11]) | Kd (15N-labelled NDM-1; [12]) | Kd (15N-labelled NDM-1; [13]) | Kd (15N-labelled NDM-1; [14]) | Kd (15N-labelled NDM-1; [15]) | Kd (15N-labelled NDM-1; [16]) | Kd (15N-labelled NDM-1; [17]) | Kd (15N-labelled NDM-1; [18]) | other results |
| --- | --- | --- | --- | --- | --- | --- | --- | --- | --- | --- | --- | --- | --- | --- | --- | --- | --- | --- | --- | --- | --- |
| O=C(NC(C1CCCCN1)P(=O)(O)O)c1cccs1 (stereo not drawn) [Compound 5b-1, (Piperidin-2-yl(thiophene-2-carboxamido)methyl)phos-phonic acid hydrochloride] | 400 ± 40 µM | 230 ± 28 µM | 18100 µM | 3170 µM | 8340 µM | 21500 µM | 8970 µM | 3400 µM | 850 µM | 2930 µM | 10400 µM | 11000 µM | 3490 µM | 1360 µM | 10500 µM | 11000 µM | 2240 µM | 4330 µM | 12900 µM | 6070 µM | IC50 (VIM-2; Enzyme IC50 VIM-2, 0.1 nM VIM-2, 100 μM ZnCl2, nitrocefin substrate): 118 ± 60 µM; Kd (15N-labelled NDM-1; Estimated binding constant (Kd), residue 070F, Table S5, per-residue fit, NDM-1 070F): 2920 µM; Kd (15N-labelled NDM-1; Estimated binding constant (Kd), residue 091T, Table S5, per-residue fit, NDM-1 091T): 5760 µM; Kd (15N-labelled NDM-1; Estimated binding constant (Kd), residue 108E, Table S5, per-residue fit, NDM-1 108E): 6630 µM; Kd (15N-labelled NDM-1; Estimated binding constant (Kd), residue 149A, Table S5, per-residue fit, NDM-1 149A): 1710 µM; Kd (15N-labelled NDM-1; Estimated binding constant (Kd), residue 152E, Table S5, per-residue fit, NDM-1 152E): 3520 µM; Kd (15N-labelled NDM-1; Estimated binding constant (Kd), residue 232S, Table S5, per-residue fit, NDM-1 232S): 12100 µM; Kd (15N-labelled NDM-1; [19]): 3480 µM; Kd (15N-labelled NDM-1; [20]): 9740 µM; Kd (15N-labelled NDM-1; [21]): 7370 µM; Kd (15N-labelled NDM-1; [22]): 2000 ± 100 µM |
| O=C(Cc1cccs1)NC(C1CCCCN1)P(=O)(O)O (stereo not drawn) [Compound 5i-1, (Piperidin-2-yl(2-(thiophen-2-yl)acetamido)methyl)phos-phonic acid hydrochloride] | 1500 ± 200 µM | 296 ± 87 µM | 930 µM | 3530 µM | 8940 µM | 2470 µM | 250 µM | 490 µM | 120 µM | 4990 µM | 1270 µM | 2300 µM | 140 µM | 570 µM | 3060 µM | 3080 µM | 340 µM | 180 µM | 780 µM | 1820 µM | Enzyme IC50 VIM-2 (VIM-2; 0.1 nM VIM-2, 100 μM ZnCl2, nitrocefin substrate): N.I.; Kd (15N-labelled NDM-1; Estimated binding constant (Kd), residue 213S, Table S5, per-residue fit, NDM-1 213S): 390 µM; Kd (15N-labelled NDM-1; [19]): 480 µM; Kd (15N-labelled NDM-1; [20]): 7530 µM; Kd (15N-labelled NDM-1; [21]): 9910 µM; Kd (15N-labelled NDM-1; [22]): 500 ± 100 µM |
